Activity calls are given as the source filed them. The rule behind the calls is not given here.
Experiments:
A549 = test: Induction of apoptosis in human A549 cells by acridine orange/ethidium bromide staining; format: functional, cell-based
MCF7 [1] = test: Induction of apoptosis in human MCF7 cells at 30 uM by acridine orange/ethidium bromide staining; format: functional, cell-based
[2] = Cytotoxicity against human Lipo cells by SRB assay; format: functional, cell-based
8505C = test: Cytotoxicity against human 8505C cells by SRB assay; format: functional, cell-based
[3] = Cytotoxicity against human 518A2 cells by SRB assay; format: functional, cell-based
[4] = Cytotoxicity against human A253 cells by SRB assay; format: functional, cell-based
[5] = Cytotoxicity against human DLD1 cells by SRB assay; format: functional, cell-based; settings: DLD-1
MCF7 [6] = test: Cytotoxicity against human MCF7 cells by SRB assay; format: functional, cell-based
[7] = Cytotoxicity against human SW1736 cells by SRB assay; format: functional, cell-based; settings: SW-1736
NIH3T3 = test: Cytotoxicity against mouse NIH/3T3 cells by SRB assay; format: cell-based
MCF7 [8] = test: Induction of apoptosis in human MCF7 cells at 40 uM by acridine orange/ethidium bromide staining; format: functional, cell-based
MCF7 [9] = test: Induction of apoptosis in human MCF7 cells at 12 uM by acridine orange/ethidium bromide staining; format: functional, cell-based
MCF7 [10] = test: Induction of apoptosis in human MCF7 cells at 20 uM by acridine orange/ethidium bromide staining; format: functional, cell-based

SMILES | Activity (A549) | Activity (MCF7 [1]) | IC50 [2] [µM] | IC50 (8505C) [µM] | IC50 [3] [µM] | IC50 [4] [µM] | IC50 [5] [µM] | IC50 (MCF7 [6]) [µM] | IC50 [7] [µM] | IC50 (NIH3T3) [µM] | Activity (MCF7 [8]) | Activity (MCF7 [9]) | Activity (MCF7 [10])
COC(=O)[C@@]1(C)CC[C@]2(C)CC[C@]3(C)C(=CC(=O)[C@@H]4[C@@]5(C)CC[C@H](O)C(C)(C)[C@@H]5CC[C@]43C)[C@@H]2C1 | Active | Active | – | – | – | – | – | – | – | – | – | – | –
COC(=O)[C@@]1(C)CC[C@]2(C)CC[C@]3(C)C(=CC(=O)[C@@H]4[C@@]5(C)CC[C@H](O[C@@H]6O[C@H](CO)[C@H](O)[C@H](O)[C@H]6O)C(C)(C)[C@@H]5CC[C@]43C)[C@@H]2C1 | Active | Active | 23.2 | 22.8 | 23.3 | 19.7 | 23.2 | 20.1 | 21.4 | 23.4 | – | – | –
COC(=O)[C@@]1(C)CC[C@]2(C)CC[C@]3(C)C(=CC(=O)[C@@H]4[C@@]5(C)CC[C@H](O[C@H]6OC[C@@H](O)[C@@H](O)[C@@H]6O)C(C)(C)[C@@H]5CC[C@]43C)[C@@H]2C1 | Active | – | > 30 | > 30 | > 30 | > 30 | > 30 | > 30 | > 30 | > 30 | Active | – | –
COC(=O)[C@@]1(C)CC[C@]2(C)CC[C@]3(C)C(=CC(=O)[C@@H]4[C@@]5(C)CC[C@H](O[C@@H]6O[C@@H](C)[C@H](O)[C@@H](O)[C@H]6O)C(C)(C)[C@@H]5CC[C@]43C)[C@@H]2C1 | Active | Active | > 30 | > 30 | > 30 | > 30 | > 30 | 19.6 | > 30 | > 30 | – | – | –
COC(=O)[C@@]1(C)CC[C@]2(C)CC[C@]3(C)C(=CC(=O)[C@@H]4[C@@]5(C)CC[C@H](O[C@H]6O[C@H](CO)[C@@H](O)[C@H](O)[C@@H]6O)C(C)(C)[C@@H]5CC[C@]43C)[C@@H]2C1 | Active | – | > 30 | 22 | 25.9 | 13.2 | > 30 | 9.48 | 11.2 | > 30 | – | Active | –
COC(=O)[C@@]1(C)CC[C@]2(C)CC[C@]3(C)C(=CC(=O)[C@@H]4[C@@]5(C)CC[C@H](O[C@H]6O[C@@H](C)[C@H](O)[C@@H](O)[C@H]6O)C(C)(C)[C@@H]5CC[C@]43C)[C@@H]2C1 | Active | – | 28.4 | > 30 | 28.9 | 27.2 | > 30 | > 30 | 23.9 | > 30 | Active | – | –
COC(=O)[C@@]1(C)CC[C@]2(C)CC[C@]3(C)C(=CC(=O)[C@@H]4[C@@]5(C)CC[C@H](O[C@@H]6OC[C@H](O)[C@H](O)[C@H]6O)C(C)(C)[C@@H]5CC[C@]43C)[C@@H]2C1 | Active | – | > 30 | > 30 | > 30 | > 30 | > 30 | 16.7 | > 30 | > 30 | – | – | Active
COC(=O)[C@@]1(C)CC[C@]2(C)CC[C@]3(C)C(=CC(=O)[C@@H]4[C@@]5(C)CC[C@H](O[C@@H]6OC[C@@H](O)[C@H](O)[C@H]6O)C(C)(C)[C@@H]5CC[C@]43C)[C@@H]2C1 | Active | – | > 30 | > 30 | > 30 | > 30 | > 30 | > 30 | > 30 | > 30 | Active | – | –

From ChEMBL document CHEMBL3102762, “A "natural" approach: synthesis and cytoxicity of monodesmosidic glycyrrhetinic acid glycosides” (Eur J Med Chem, 2014)
